How the values were obtained:
[1] = system: H-DNA 1 (DNA, aptamer) GCGGGCGGTTGTATAGCGGTTTTTTCTCACACGAATTCATCTGAC; test: competitive fluorescent lateral flow strip; details: for Cross-reactivity: T-DNA competes, [AMP] at IC50/[M] at IC50, AMP = 100
[2] = system: H-DNA 1' (DNA, aptamer) GCGGGCGGTTGTATAGCGGTTTTTTCTCACACGAATTCATCTGAC; test: competitive fluorescent lateral flow strip; details: T-DNA competes on T line; AMP 150 and 200 ng/L; slight signal change

SMILES: CC1(C)S[C@@H]2[C@H](NC(=O)[C@H](N)c3ccccc3)C(=O)N2[C@H]1C(=O)O
- binding ([1]; T-DNA (complementary strand) competes on T line, AMP 50-300 ng/L): yes
- binding [2]: weak

SMILES: O=C(N[C@H](CO)[C@H](O)c1ccc([N+](=O)[O-])cc1)C(Cl)Cl
- Cross-reactivity ([1]; n = 3, RSD 4.34%): 6.60%

SMILES: NC[C@H]1O[C@H](O[C@H]2[C@H](O)[C@@H](O[C@H]3O[C@H](CO)[C@@H](O)[C@H](N)[C@H]3O)[C@H](N)C[C@@H]2N)[C@H](O)[C@@H](O)[C@@H]1O
- Cross-reactivity ([1]; n = 3, RSD 3.89%): 5.53%

SMILES: CN(C)[C@@H]1C(=O)C(C(N)=O)=C(O)[C@@]2(O)C(=O)C3=C(O)c4c(O)cccc4[C@@](C)(O)[C@H]3[C@H](O)[C@@H]12
- Cross-reactivity ([1]; n = 3, RSD 2.76%): 0.88%

SMILES: CN(C)[C@@H]1C(=O)C(C(N)=O)=C(O)[C@@]2(O)C(=O)C3=C(O)c4c(O)cccc4[C@@](C)(O)[C@H]3C[C@@H]12
- Cross-reactivity ([1]; n = 3, RSD 2.34%): 0.67%

SMILES: CC1(C)S[C@@H]2[C@H](NC(=O)Cc3ccccc3)C(=O)N2[C@H]1C(=O)O
- Cross-reactivity ([1]; n = 3, RSD 3.56%): 7.40%

From paper PMC7231327 (2020)
